In ChEMBL document CHEMBL1201862, “PubChem BioAssay data set” (2004):
Calls of active or inactive are those of the source.

How the values were obtained:
[1] = luciferase reporter signal suppression in cells – H4 neuroglioma cells, luminescence, dose response (AID 1990); type: functional, cell-based
[2] = Luminescence Cell-Based Dose Response HTS to Identify Inhibitors of 5'UTR Stem-Loop Driven Prion Protein mRNA Translation in H4 Neuroglioblastoma Cells. [Related pubchem assays: 1827 (Project Summary), 1813 (Primary HTS)]; type: functional
[3] = alpha-synuclein stem-loop luciferase translation blockers – H4 neuroglioma cells, luminescence, confirmation (AID 1988); type: functional, cell-based
[4] = Luminescence-based counterscreen assay for KLF5 inhibitors: dose response cell-based high throughput screening assay to identify cytotoxic compounds using the IEC-6 intestinal epithelial cell line. [Related pubchem assays: 1700 (Primary screen.), 1834 (Confirmation screen.), 1858 (Summary AID.), 1905 (Counterscreen.)]; type: functional
[5] = target: T1, Microphthalmia-associated transcription factor (Homo sapiens, UniProt O75030); assay: reducers of TRPM1 reporter luminescence, concentration series – cell-based, SK-MEL-5, cherry-picked, set 3, MITF inhibitor project, dose response (AID 493073); type: functional;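 also: SK-MEL-5 melanoma cells with luciferase driven by the MITF target TRPM1 promoter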
T1 sequence (O75030 whole entry): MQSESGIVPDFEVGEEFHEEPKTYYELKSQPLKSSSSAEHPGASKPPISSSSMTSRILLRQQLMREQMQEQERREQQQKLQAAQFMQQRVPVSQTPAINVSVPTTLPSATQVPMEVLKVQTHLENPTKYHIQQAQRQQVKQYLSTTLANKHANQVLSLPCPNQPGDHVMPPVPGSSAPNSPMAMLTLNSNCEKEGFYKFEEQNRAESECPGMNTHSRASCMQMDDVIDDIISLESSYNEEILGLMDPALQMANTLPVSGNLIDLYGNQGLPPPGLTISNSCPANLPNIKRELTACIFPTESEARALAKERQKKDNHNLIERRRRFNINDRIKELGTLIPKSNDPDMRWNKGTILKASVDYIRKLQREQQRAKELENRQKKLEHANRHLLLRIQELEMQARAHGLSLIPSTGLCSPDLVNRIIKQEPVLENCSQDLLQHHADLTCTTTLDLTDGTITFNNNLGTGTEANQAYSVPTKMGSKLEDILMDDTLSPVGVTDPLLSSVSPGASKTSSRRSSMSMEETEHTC

[6] = HEK-293T cell viability reduction – luminescence, B-cell screen hits, cytotoxicity control for BCR NF-kB inhibitor project, dose response (AID 489021); type: functional, cell-based;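 also: HEK-293T cells carrying an NF-kB luciferase reporter; cells exposed to compound for about 14 hours before viability readout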
Jurkat = assay: SAR Analysis of small molecule inhibitors of […] specific antigen receptor-induced NF-kB activation in a Jurkat cell line using a luminescence assay - Set 3. [Related pubchem assays (depositor defined):AID435022, AID435025, AID465]; type: functional, cell-based; details: Homo sapiens
HEK293 [7] = assay: SAR Analysis of small molecule inhibitors of B-cell specific antigen receptor-induced NF-kB activation in a HEK-293T cell line using a luminescence assay - Set 2. [Related pubchem assays (depositor defined):AID435022, AID435025, AID489021]; type: functional, cell-based; details: Homo sapiens
HEK293 [8] = assay: HEK293T cell viability loss, resazurin readout – resazurin fluorescence, cytotoxicity control for NF-kB activator project, SAR follow-up (AID 493251); type: functional, cell-based; details: Homo sapiens
A-375 [9] = assay: MITF: Counter assay: A375 proliferation Measured in Cell-Based System Using Plate Reader - 2084-03_Inhibitor_Dose_DryPowder_Activity. [Related pubchem assays (depositor defined):AID488944]; type: functional; details: Homo sapiens
A-375 [10] = assay: proliferation inhibition in MITF-low A375 cells – cell-based, cherry-pick samples, set 2, counter-screen for MITF modulator project, dose response (AID 540335); type: functional; details: Homo sapiens
[11] = blockers of HIV-1 envelope-mediated cell-cell fusion – cherry-pick, dose response (AID 652057); type: functional, cell-based
[12] = blockers of HIV-1 ZM109 envelope-driven cell-cell fusion – HeLa effector, CEM target cells, luciferase, cherry-pick, dose response (AID 652058); type: functional, cell-based;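 also: luciferase signal from HIV-1 Env mediated cell-cell fusion of effector and target cells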
[13] = HIV-1 AD8 envelope cell-cell fusion blockers – cherry-pick, dose response (AID 652062); type: functional, cell-based;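 also: luciferase signal from cell-cell fusion driven by HIV-1 clade B AD8 Env; potency is for inhibitors of fusion seen as a drop in luminescence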
[14] = luciferase signal loss, tTA control fusion, HeLa F-luc tTA cells, dry powder, counter-screen for HIV Env fusion inhibitor project, dose response (AID 687021); type: functional, cell-based
[15] = viability loss in CEM21 cells – cell-based, plate reader, dry powder, cytotoxicity control, dose response (AID 687026); type: functional
[16] = Trypanosoma cruzi growth suppression in host cells – NIH3T3 host cells, beta-gal luminescence, confirmation (AID 2044); type: functional, cell-based;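 also: intracellular parasites grown in NIH/3T3 mouse fibroblasts as host cells; luminescent beta-galactosidase reporter signal from transgenic T. cruzi replicating inside host cells; inhibitors lower the luminescence signal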
[17] = NIH3T3 cell viability loss – ATP luminescence, mouse fibroblasts, counter-screen, dose response (AID 2010); type: functional, cell-based;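 also: cells exposed to compound for about 90 hours before reading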
Cysteine protease ATG4B = Cysteine protease ATG4B (Homo sapiens, UniProt Q9Y4P1); type: functional;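 also: Fluorescence-based dose-response confirmation assay measuring inhibition of ATG4B activity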
Phospholipase A2 = Phospholipase A2 (Homo sapiens, UniProt P04054); type: functional;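 also: confirmatory dose-response counterscreen on phospholipase A2, testing hits that came from an ultra-high-throughput screen for ATG4B inhibitors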
Hexokinase-1 = Hexokinase-1 (Homo sapiens, UniProt P19367); assay: hexokinase 1 activity inhibitors, potency – biochemical, set 2, resazurin fluorescence coupled readout, selectivity assay for HKDC1 inhibitor project, SAR follow-up (AID 588356); type: functional
Hexokinase HKDC1 = target: T2, Hexokinase HKDC1 (Homo sapiens, UniProt Q2TB90); assay: analog inhibition of human HKDC1 activity – biochemical, set 2, SAR follow-up (AID 588355); type: functional
T2 sequence (Q2TB90 whole entry): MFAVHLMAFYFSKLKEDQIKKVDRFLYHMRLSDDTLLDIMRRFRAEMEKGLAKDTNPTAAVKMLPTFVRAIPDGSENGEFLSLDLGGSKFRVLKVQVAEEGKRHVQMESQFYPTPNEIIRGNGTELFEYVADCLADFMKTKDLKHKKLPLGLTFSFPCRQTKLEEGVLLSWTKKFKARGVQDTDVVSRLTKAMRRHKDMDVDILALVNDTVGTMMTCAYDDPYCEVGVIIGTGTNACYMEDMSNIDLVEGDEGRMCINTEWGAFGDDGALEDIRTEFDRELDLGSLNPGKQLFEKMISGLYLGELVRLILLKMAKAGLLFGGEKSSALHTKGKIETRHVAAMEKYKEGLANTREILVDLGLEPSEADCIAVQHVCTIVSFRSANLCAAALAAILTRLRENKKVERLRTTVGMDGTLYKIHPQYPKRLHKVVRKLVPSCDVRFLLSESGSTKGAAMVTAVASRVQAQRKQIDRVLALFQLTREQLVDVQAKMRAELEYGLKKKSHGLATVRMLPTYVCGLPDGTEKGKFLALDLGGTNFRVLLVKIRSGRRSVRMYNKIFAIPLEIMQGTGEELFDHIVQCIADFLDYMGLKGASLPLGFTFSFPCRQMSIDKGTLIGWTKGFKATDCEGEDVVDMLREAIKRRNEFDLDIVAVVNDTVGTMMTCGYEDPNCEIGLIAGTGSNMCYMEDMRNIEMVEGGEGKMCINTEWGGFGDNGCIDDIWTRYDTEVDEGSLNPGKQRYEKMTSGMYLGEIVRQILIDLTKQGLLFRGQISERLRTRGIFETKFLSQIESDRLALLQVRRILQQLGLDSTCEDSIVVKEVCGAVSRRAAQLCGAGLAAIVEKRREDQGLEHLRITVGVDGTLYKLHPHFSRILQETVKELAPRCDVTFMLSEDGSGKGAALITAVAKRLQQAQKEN

[18] = target: 1-acylglycerol-3-phosphate O-acyltransferase ABHD5/Perilipin-5 (Homo sapiens, UniProt Q00G26+Q8WTS1); assay: Luminescence-based biochemical high throughput dose response assay for inhibitors of the interaction of the lipase co-activator protein, abhydrolase domain containing 5 (ABHD5) with perilipin-5 (MLDP; PLIN5) (2K validation set). [Related pubchem assays (depositor defined):AID493035, AID493241]
Perilipin-1/ABHD5 = Perilipin-1/ABHD5 (Homo sapiens, UniProt O60240+Q8WTS1); assay: Luminescence-based biochemical high throughput dose response assay for inhibitors of the interaction of the lipase co-activator protein, abhydrolase domain containing 5 (ABHD5) with perilipin-1 (PLIN1) (2K validation set). [Related pubchem assays (depositor defined):AID493027, AID493057]
[19] = target: Protein-arginine deiminase type-4 (Homo sapiens, UniProt Q9UM07); assay: IC50 against protein arginine deiminase 4 – biochemical, fluorescence readout, dose response (AID 492970)
[20] = target: T3, Replicative DNA helicase DnaB (Mycobacterium tuberculosis, UniProt P9WMR3); assay: DnaB intein splicing inhibitors, dose response, biochemical, cell-free fluorescence (AID 449749); type: functional
T3 sequence (P9WMR3 whole entry): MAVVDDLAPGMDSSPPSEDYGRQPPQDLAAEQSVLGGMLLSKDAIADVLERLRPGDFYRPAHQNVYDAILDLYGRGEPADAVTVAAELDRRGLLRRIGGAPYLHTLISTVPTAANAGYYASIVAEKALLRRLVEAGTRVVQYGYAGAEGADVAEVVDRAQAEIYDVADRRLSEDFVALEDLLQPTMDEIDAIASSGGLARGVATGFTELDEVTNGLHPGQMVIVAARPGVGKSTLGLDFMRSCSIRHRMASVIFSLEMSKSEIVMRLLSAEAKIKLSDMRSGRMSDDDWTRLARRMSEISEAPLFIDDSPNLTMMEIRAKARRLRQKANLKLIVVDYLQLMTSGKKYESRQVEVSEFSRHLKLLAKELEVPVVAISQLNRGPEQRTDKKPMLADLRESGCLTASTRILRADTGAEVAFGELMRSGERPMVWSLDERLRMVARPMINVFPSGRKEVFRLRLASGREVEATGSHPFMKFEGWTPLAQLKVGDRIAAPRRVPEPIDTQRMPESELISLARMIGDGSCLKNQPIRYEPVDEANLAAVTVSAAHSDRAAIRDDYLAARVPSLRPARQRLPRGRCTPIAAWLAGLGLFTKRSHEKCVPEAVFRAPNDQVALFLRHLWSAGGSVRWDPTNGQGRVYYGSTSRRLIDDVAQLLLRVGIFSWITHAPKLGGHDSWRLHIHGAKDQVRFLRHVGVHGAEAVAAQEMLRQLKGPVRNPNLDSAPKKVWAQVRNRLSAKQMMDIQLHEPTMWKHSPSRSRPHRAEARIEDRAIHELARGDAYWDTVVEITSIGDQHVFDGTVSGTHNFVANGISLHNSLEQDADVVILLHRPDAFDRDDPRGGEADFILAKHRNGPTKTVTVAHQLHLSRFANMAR

Protein RecA = target: T4, Protein RecA (Mycobacterium tuberculosis, UniProt P9WHJ3); assay: Fluorescence Cell-Free Homogeneous Dose Retest to Identify Inhibitors of RecA-Intein Splicing Activity. [Related pubchem assays (depositor defined):AID2097, AID2223, AID489010, AID492950]; type: functional
T4 sequence (P9WHJ3 whole entry): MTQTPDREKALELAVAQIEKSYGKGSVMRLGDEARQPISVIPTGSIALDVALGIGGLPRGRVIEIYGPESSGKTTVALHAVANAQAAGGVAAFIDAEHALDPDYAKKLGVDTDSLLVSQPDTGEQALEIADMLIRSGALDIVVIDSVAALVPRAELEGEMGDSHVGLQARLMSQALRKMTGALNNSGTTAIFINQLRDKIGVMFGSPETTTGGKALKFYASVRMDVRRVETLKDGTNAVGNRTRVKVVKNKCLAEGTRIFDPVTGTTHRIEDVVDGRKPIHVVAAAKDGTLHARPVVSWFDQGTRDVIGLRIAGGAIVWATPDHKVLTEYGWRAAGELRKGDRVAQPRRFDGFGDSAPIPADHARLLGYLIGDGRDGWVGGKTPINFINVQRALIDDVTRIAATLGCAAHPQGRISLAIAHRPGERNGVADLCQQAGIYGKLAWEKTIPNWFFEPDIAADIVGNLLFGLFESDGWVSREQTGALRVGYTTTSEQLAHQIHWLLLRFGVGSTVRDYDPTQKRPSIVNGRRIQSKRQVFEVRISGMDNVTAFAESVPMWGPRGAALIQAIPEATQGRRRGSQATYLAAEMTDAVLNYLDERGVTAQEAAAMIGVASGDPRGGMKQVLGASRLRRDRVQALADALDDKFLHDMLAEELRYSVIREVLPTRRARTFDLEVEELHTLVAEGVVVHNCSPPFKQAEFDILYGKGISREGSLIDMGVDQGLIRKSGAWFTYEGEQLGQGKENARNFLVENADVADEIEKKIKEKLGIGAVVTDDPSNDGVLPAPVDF

[21] = target: Voltage-gated inwardly rectifying potassium channel KCNH2 (Homo sapiens, UniProt Q12809); details: Potency;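 also: confirmatory quantitative high-throughput screen measuring inhibition of hERG channel activity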
Sequence of Voltage-gated inwardly rectifying potassium channel KCNH2 (Q12809 whole entry): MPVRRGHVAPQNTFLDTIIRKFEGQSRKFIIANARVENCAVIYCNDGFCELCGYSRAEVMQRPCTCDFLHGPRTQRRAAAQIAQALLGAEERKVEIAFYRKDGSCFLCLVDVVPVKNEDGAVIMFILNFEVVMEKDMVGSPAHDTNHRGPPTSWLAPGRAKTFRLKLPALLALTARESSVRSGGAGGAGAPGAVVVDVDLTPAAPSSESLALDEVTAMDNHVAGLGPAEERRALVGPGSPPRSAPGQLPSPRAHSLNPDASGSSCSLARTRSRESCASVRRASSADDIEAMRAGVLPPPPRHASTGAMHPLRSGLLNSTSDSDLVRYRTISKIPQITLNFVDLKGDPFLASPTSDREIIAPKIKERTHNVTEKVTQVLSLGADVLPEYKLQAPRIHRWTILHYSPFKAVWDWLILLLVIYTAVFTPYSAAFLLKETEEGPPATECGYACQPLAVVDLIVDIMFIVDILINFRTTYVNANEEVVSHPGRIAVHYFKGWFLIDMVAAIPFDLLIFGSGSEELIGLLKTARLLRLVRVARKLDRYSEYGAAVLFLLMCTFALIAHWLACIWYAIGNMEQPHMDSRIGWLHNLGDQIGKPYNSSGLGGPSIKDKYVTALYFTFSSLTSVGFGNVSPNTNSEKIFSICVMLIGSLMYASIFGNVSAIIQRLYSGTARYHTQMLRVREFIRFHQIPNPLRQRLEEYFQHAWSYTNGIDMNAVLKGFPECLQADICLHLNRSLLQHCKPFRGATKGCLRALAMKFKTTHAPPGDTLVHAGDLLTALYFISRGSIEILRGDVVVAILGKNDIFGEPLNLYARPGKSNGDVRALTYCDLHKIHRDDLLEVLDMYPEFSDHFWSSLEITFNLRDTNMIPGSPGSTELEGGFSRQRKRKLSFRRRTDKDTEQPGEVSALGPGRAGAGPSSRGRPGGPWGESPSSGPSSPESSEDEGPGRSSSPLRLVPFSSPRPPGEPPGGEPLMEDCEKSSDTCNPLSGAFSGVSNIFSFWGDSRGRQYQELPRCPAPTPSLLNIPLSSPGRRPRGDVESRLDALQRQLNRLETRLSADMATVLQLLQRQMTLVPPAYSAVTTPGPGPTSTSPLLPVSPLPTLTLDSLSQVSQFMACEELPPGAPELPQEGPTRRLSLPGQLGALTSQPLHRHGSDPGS

Sequence of Protein-arginine deiminase type-4 (Q9UM07 whole entry): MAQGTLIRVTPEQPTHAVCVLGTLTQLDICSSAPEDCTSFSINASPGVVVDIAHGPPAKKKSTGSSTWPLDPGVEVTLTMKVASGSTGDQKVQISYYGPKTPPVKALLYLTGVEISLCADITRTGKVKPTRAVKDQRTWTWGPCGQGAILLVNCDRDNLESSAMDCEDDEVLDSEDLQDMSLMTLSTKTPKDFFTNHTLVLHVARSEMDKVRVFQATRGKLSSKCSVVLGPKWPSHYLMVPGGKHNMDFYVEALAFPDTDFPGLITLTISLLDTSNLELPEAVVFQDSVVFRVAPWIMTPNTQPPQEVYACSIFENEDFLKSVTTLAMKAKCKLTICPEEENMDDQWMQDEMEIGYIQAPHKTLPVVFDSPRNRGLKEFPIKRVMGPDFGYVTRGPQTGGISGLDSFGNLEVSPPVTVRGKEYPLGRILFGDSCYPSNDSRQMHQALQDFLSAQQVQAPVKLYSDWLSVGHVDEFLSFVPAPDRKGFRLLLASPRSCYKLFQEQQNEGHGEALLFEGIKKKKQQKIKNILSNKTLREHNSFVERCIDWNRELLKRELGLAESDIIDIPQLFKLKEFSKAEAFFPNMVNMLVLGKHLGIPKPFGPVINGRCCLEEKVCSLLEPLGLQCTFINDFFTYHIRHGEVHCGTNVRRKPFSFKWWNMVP
Sequence of Phospholipase A2 (P04054 whole entry): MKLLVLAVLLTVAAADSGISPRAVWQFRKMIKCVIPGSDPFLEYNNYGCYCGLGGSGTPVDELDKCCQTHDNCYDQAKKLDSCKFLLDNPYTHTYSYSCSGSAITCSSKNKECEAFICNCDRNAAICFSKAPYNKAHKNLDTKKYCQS
Sequence of Perilipin-1/ABHD5 (Q8WTS1 whole entry, the tested form may be a part): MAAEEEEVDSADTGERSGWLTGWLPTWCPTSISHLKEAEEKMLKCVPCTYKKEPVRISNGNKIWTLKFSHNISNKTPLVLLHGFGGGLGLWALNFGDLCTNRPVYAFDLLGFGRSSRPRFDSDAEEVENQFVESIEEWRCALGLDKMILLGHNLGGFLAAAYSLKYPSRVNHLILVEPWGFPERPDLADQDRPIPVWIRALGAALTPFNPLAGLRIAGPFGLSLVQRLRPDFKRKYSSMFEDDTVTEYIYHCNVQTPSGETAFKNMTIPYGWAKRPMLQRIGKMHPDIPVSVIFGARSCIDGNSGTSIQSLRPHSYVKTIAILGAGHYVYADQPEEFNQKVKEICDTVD
Sequence of Perilipin-1/ABHD5 (O60240 whole entry, the tested form may be a part): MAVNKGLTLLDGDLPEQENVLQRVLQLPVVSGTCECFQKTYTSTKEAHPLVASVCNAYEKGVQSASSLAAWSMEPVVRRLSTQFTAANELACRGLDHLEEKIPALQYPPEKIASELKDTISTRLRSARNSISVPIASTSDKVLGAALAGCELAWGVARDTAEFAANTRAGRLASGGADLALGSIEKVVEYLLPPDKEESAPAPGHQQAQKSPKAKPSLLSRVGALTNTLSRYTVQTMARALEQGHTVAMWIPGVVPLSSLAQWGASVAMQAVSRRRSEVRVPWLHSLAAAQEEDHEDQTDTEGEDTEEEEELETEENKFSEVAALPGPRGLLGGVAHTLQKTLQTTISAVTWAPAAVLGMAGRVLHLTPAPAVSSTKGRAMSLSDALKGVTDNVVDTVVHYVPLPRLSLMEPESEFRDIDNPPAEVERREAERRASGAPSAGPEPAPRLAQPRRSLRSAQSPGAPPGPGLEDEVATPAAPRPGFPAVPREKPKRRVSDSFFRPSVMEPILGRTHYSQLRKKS
Sequence of Hexokinase-1 (P19367 whole entry): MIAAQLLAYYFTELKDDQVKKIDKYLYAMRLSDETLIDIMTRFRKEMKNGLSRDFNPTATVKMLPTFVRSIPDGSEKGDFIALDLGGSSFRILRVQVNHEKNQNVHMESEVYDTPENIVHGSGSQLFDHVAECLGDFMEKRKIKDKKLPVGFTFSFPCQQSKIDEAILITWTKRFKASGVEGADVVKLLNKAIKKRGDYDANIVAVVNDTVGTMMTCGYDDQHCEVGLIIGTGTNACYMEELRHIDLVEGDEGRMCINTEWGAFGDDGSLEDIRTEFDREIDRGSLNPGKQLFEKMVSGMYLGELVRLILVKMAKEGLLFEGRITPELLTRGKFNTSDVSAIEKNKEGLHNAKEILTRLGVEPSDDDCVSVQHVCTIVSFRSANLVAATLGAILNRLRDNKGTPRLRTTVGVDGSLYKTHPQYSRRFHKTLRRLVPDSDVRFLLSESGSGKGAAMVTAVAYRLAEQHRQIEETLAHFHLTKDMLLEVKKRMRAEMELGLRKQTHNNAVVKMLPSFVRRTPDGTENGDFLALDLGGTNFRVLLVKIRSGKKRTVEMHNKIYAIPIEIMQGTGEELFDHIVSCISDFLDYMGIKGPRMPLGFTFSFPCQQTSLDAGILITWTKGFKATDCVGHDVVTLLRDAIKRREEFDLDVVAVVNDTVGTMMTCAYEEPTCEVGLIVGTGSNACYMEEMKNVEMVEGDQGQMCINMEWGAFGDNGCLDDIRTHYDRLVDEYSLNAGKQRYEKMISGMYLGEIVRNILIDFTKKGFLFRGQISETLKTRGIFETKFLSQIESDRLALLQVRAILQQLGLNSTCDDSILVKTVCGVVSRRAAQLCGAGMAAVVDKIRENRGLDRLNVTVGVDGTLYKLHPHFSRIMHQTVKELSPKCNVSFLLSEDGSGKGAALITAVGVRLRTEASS
Sequence of 1-acylglycerol-3-phosphate O-acyltransferase ABHD5/Perilipin-5 (Q00G26 whole entry, the tested form may be a part): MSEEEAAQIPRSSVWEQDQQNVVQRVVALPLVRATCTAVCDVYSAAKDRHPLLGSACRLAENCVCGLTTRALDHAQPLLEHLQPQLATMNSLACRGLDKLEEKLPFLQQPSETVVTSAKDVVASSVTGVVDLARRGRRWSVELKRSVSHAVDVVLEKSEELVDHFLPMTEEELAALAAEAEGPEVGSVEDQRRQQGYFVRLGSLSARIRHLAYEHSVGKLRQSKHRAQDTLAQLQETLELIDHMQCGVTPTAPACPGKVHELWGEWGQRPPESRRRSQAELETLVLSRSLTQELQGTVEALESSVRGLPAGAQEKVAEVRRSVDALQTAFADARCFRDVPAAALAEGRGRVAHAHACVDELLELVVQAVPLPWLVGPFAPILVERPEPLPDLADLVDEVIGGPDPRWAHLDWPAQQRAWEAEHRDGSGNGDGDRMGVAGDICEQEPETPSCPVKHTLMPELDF
Sequence of 1-acylglycerol-3-phosphate O-acyltransferase ABHD5/Perilipin-5 (Q8WTS1 whole entry, the tested form may be a part): as the sequence (Q8WTS1 whole entry, the tested form may be a part) above
Sequence of Cysteine protease ATG4B (Q9Y4P1 whole entry): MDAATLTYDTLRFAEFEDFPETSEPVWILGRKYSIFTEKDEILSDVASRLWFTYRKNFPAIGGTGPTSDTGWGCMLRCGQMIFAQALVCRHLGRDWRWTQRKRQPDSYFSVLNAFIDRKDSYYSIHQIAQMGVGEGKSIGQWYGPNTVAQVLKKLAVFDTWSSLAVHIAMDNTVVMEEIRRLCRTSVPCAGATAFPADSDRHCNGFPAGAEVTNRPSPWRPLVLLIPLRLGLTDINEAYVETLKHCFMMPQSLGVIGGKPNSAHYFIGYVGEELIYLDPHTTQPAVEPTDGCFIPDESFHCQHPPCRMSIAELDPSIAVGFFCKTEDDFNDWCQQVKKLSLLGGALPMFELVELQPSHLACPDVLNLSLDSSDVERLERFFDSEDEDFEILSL

CC(C)(C)c1ccc(-c2noc(CCC(=O)NCC3CCCO3)n2)cc1 (stereo not drawn)
EC50 [1]: < 100 nM (active)
EC50 [2]: 9.11 µM (active)
EC50 [3]: 152 nM (active)
IC50 [4]: > 39.8 µM (not active)
AC50 [5]: 275 nM (active)
IC50 [6]: > 80 µM (inactive)
IC50 (Jurkat): 13.4 µM (active)
IC50 (HEK293 [7]): 1.54 µM (active)
IC50 (HEK293 [8]): 70.9 µM (inactive)
AC50 (A-375 [9]): > 35 µM (active)
AC50 (A-375 [10]): > 35 µM (active)
AC50 [11]: 359 nM (active)
AC50 [12]: 293 nM (active)
AC50 [13]: < 260 nM (active)
AC50 [14]: 67.1 µM (active)
AC50 [15]: > 70 µM (inactive)

CC(C)C[C@H](NC(=O)OC(C)(C)C)C(=O)N/N=C/C1=Cc2ccccc2OC1C (stereo partly drawn)
EC50 [16]: 3.34 µM (active)
EC50 [17]: > 60 µM (not active)
IC50 (Cysteine protease ATG4B): 37.1 µM (inactive)
IC50 (Phospholipase A2): 15.4 µM (active)

COc1cc2c(cc1OC)-c1cc(NCCN(C)C)nc(=O)n1CC2
IC50 (Hexokinase-1): > 80 µM (inactive)
IC50 (Hexokinase HKDC1): > 80 µM (inactive)

Cc1ccc(S(=O)(=O)N[C@@H](Cc2ccccc2)C(=O)CCl)cc1 [TPCK]
IC50 [18]: 1.9 µM (active)
IC50 (Perilipin-1/ABHD5): 1.87 µM (active)
IC50 [19]: 13 µM (inactive)
AC50 [20]: 2.03 µM (active)
EC50 (Protein RecA): 712 nM (active)
AC50 [21]: 12.6 µM (inconclusive)
